# Test system: Candida albicans (clinically isolated strain)
# Assay: Activity against Candida albicans infection in mice (survival days)
# Type: in vivo
# Conditions: Mice infected with Candida albicans, tail vein injection; summary of Table 1
# Method: Activity against Candia albicans: Male CRJ:ICR mice (5 week age, 10 mice per group) were used. The fat emulsion obtained in Example 1; an injection solution (HCO 60 preparation) wherein the compound [I] was dissolved in a concentration of 2 % (w/v) in an aqueous solution of 10 % (w/v) of polyoxyethylene hydrogenated castor oil and 5 % (w/v) of glucose; and a solvent for the HCO 60 preparation (i.e. an aqueous solution of 10 % (w/v) of polyoxyethylene hydrogenated castor oil and 5 % (w/v) of glucose (as a control) The test mice was infected with Candida albicans (clinically isolated strain) by injecting the microorganism in an amount of 5 x 10^6 cells/mouse through the tail vein. One hour after the infection, the test injection products were each injected through the tail vein, and the survival days of mice were measured. The evaluation of effect was calculated by the following formula: Average survival days in each test group T/C = x 100 Average survival days in control group
smiles,measurement,value
"CCC(C)C(=Cn1ccnc1)c1ccc(Cl)cc1Cl (stereo not shown) [compound [I], 1-[2-(2,4-dichlorophenyl)-3-methyl-1-pentenyl]-1H-imidazole]",effect against the infection (in words),remarkedly excellent effect against the infection

# Reference: patent EP0257454A1, “Oil-in-water type fat emulsion of 1-[2-(2,4-dichlorophenyl)-3-methyl-1-pentenyl]-1H-imidazole” (MORISHITA PHARMACEUTICAL CO. LTD., priority 1986, dated 1988)
